The results in this text go back to patent US7485641B2, “Substituted 3-amino-pyrrolidino-4-lactams” (Pfizer, Inc., priority 2006, dated 2009).

Counter-ions that a name gives are not always drawn.

T1 sequence (P27487 whole entry, species assumed): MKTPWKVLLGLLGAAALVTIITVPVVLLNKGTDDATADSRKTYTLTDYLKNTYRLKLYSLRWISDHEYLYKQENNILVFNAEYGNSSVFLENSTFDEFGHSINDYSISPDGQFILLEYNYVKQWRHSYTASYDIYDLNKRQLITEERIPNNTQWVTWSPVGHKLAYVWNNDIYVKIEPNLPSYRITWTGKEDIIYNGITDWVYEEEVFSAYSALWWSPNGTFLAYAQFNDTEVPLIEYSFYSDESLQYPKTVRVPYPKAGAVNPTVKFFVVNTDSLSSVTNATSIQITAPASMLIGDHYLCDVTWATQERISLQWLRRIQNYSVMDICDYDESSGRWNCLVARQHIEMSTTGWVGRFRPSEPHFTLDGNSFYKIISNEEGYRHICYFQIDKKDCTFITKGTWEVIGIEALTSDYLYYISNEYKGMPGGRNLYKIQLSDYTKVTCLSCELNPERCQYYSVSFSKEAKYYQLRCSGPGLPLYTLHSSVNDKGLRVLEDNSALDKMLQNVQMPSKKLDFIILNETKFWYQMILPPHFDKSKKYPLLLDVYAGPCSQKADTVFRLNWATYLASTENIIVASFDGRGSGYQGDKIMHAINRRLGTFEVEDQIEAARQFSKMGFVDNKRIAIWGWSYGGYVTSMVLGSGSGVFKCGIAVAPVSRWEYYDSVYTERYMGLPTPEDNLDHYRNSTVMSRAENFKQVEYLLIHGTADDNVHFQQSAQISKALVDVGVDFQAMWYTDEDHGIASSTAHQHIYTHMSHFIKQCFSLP

The first assay concerns the target T1, DPP-IV (Homo sapiens, UniProt P27487).
T1 construct: purchased Enzyme Systems Products SPE-01
In words: In vitro assay for dipeptidyl peptidase inhibition. The format is biochemical. To be noted: at 300 nM; n-value given in brackets.
As to `COC1(C)CCN(c2ncnc(N3C[C@H](N)[C@@H](N4CCCCC4=O)C3)n2)CC1.O=C(O)C(F)(F)F` [Example 36, 1-((3S,4S)-4-Amino-1-(4-(4-methoxy-4-methylpiperidin-1-yl)-1,3,5-triazin-2-yl)pyrrolidin-3-yl)piperidin-2-onetrifluoroacetate], the “DPP-IV Percent Inhibition at 300 nM” value is recorded as 22.2%(4).
In the case of `N[C@H]1CN(c2ncnc(N3CC(Oc4ccc(F)c(F)c4)C3)n2)C[C@@H]1N1CCCCC1=O.O=C(O)C(F)(F)F` [Example 49, 1-((3S,4S)-4-Amino-1-(4-(3-(3,4-difluorophenoxy)azetidin-1-yl)-1,3,5-triazin-2-yl)pyrrolidin-3-yl)piperidin-2-onetrifluoroacetate], the “DPP-IV Percent Inhibition at 300 nM” value is recorded as 19.6%(4).
Regarding `COc1cc2c(cc1OC)CN(c1ncnc(N3C[C@H](N)[C@@H](N4CCCCC4=O)C3)n1)CC2.O=C(O)C(F)(F)F` [Example 59, 1-((3S,4S)-4-Amino-1-(4-(6,7-dimethoxy-3,4-dihydroisoquinolin-2(1H)-yl)-1,3,5-triazin-2-yl)pyrrolidin-3-yl)piperidin-2-onetrifluoroacetate], the “DPP-IV Percent Inhibition at 300 nM” value is listed as 44.3%(4).

The assay is the same for the next values; noted with them: at 300 nM; n-value given in brackets; read-out: DPP-IV Percent Inhibition at 300 nM.
By inhibition is commonly meant the drop in the measured response relative to a control, in per cent. In the case of `CC1(C)CN(c2ncnc(N3C[C@H](N)[C@@H](N4CCCCC4=O)C3)n2)CC1(C)C` [Example 46, 1-((3S,4S)-4-amino-1-(4-(3,3,4,4-tetramethylpyrrolidin-1-yl)-1,3,5-triazin-2-yl)pyrrolidin-3-yl)piperidin-2-one], the inhibition at 0.3 µM is 6.8%.
On the same count and under the same terms, to `N[C@H]1CN(c2cc(N3Cc4cc(Cl)c(Cl)cc4C3)ncn2)C[C@@H]1N1CCCCC1=O` [Example 54, 1-((3S,4S)-4-amino-1-(6-(5,6-dichloroisoindolin-2-yl)pyrimidin-4-yl)pyrrolidin-3-yl)piperidin-2-one] belongs 32.6%.

The assay is the same for the next values; noted with them: n-value given in brackets; read-out: DPP-IV IC50.
Usually IC50 stands for the midpoint of a concentration-inhibition curve. For the compound `CC1(O)CCN(c2ncnc(N3C[C@H](N)[C@@H](N4CCCCC4=O)C3)n2)CC1` [Example 35, 1-{(3S,4S)-4-Amino-1-[4-(4-hydroxy-4-methyl-piperidin-1-yl)-[1,3,5]triazin-2-yl]-pyrrolidin-3-yl}-piperidin-2-onetrifluoroacetate], the IC50 is 558 nM.
In the case of `N#Cc1ccccc1OC1CCN(c2ncnc(N3C[C@H](N)[C@@H](N4CCCCC4=O)C3)n2)CC1` [Example 37, 2-(1-(4-((3S,4S)-3-Amino-4-(2-oxopiperidin-1-yl)pyrrolidin-1-yl)-1,3,5-triazin-2-yl)piperidin-4-yloxy)benzonitriletrifluoroacetate], the IC50 was determined as 109 nM.
Same read-out and setting: under `N[C@H]1CN(c2ncnc(N3CC[C@@H](O)C3)n2)C[C@@H]1N1CCCCC1=O` [Example 38, 1-((3S,4S)-4-Amino-1-(4-((R)-3-hydroxypyrrolidin-1-yl)-1,3,5-triazin-2-yl)pyrrolidin-3-yl)piperidin-2-onetrifluoroacetate] stands 205 nM; under `CO[C@@H]1CCN(c2ncnc(N3C[C@H](N)[C@@H](N4CCCCC4=O)C3)n2)C1` [Example 39, 1-((3S,4S)-4-Amino-1-(4-((R)-3-methoxypyrrolidin-1-yl)-1,3,5-triazin-2-yl)pyrrolidin-3-yl)piperidin-2-onetrifluoroacetate], 325 nM; under `CO[C@H]1CCN(c2ncnc(N3C[C@H](N)[C@@H](N4CCCCC4=O)C3)n2)C1` [Example 40, 1-((3S,4S)-4-Amino-1-(4-((S)-3-methoxypyrrolidin-1-yl)-1,3,5-triazin-2-yl)pyrrolidin-3-yl)piperidin-2-onetrifluoroacetate], 566 nM.
Same read-out and setting: under `CC(=O)N[C@H]1CCN(c2ncnc(N3C[C@H](N)[C@@H](N4CCCCC4=O)C3)n2)C1` [Example 41, N-((S)-1-{4-[(3S,4S)-3-Amino-4-(2-oxo-piperidin-1-yl)-pyrrolidin-1-yl]-[1,3,5]triazin-2-yl}-pyrrolidin-3-yl)-acetamidetrifluoroacetate] stands 90 nM; under `N[C@H]1CN(c2ncnc(N3CC[C@@H](NC(=O)C(F)(F)F)C3)n2)C[C@@H]1N1CCCCC1=O` [Example 42, N-((R)-1-(4-((3S,4S)-3-Amino-4-(2-oxopiperidin-1-yl)pyrrolidin-1-yl)-1,3,5-triazin-2-yl)pyrrolidin-3-yl)-2,2,2-trifluoroacetamidetrifluoroacetate], 80 nM.
The same measure, in the same setting: under `CC1(O)CCN(c2ncnc(N3C[C@H](N)[C@@H](N4CCCCC4=O)C3)n2)C1` (stereo partly drawn) [Example 44, 1-((3S,4S)-4-amino-1-(4-(3-hydroxy-3-methylpyrrolidin-1-yl)-1,3,5-triazin-2-yl)pyrrolidin-3-yl)piperidin-2-onetrifluoroacetate] stands 316 nM; under `N[C@H]1CN(c2ncnc(N3CCCCC3)n2)C[C@@H]1N1CCCCC1=O` [Example 47, 1-[(3S,4S)-4-Amino-1-(4-piperidin-1-yl-[1,3,5]triazin-2-yl)-pyrrolidin-3-yl]-piperidin-2-onetrifluoroacetate], 315 nM.
As for `N[C@H]1CN(c2cc(N3CC(F)C3)ncn2)C[C@@H]1N1CCCC1=O` [Example 48, 1-((3S,4S)-4-Amino-1-(6-(3-fluoroazetidin-1-yl)pyrimidin-4-yl)pyrrolidin-3-yl)pyrrolidin-2-onedihydrochloride], the IC50 amounted to 1740 nM.
Regarding `N[C@H]1CN(c2ncnc(N3Cc4ccccc4C3)n2)C[C@@H]1N1CC(F)(F)CCC1=O` [Example 50, 1-{(3S,4S)-4-amino-1-[4-(1,3-dihydro-isoindol-2-yl)-[1,3,5]triazin-2-yl]-pyrrolidin-3-yl}-5,5-difluoro-piperidin-2-one], the IC50 was 19.2 nM.
With `N[C@H]1CN(c2ncnc(N3Cc4ccccc4C3)n2)C[C@@H]1N1CCCCC1=O` [Example 51, 1-{(3S,4S)-4-Amino-1-[4-(1,3-dihydro-isoindol-2-yl)-[1,3,5]triazin-2-yl]-pyrrolidin-3-yl}-piperidin-2-onetrifluoroacetate], the IC50 was determined as 48.3 nM.
Still for that read-out and setting: under `N[C@H]1CN(c2cc(N3Cc4ccccc4C3)ncn2)C[C@@H]1N1CCCC1=O` [Example 52, 1-((3S,4S)-4-Amino-1-(6-(isoindolin-2-yl)pyrimidin-4-yl)pyrrolidin-3-yl)pyrrolidin-2-onehydrochloride] stands 176 nM; under `N[C@H]1CN(c2cc(N3Cc4ccc(C(F)(F)F)cc4C3)ncn2)C[C@@H]1N1CCCCC1=O` [Example 53, 1-((3S,4S)-4-amino-1-(6-(5-(trifluoromethyl)isoindolin-2-yl)pyrimidin-4-yl)pyrrolidin-3-yl)piperidin-2-onetrifluoroacetate], 92.4 nM.
Still for that read-out and setting: to `Cc1ccc(C)c2c1CN(c1cc(N3C[C@H](N)[C@@H](N4CCCCC4=O)C3)ncn1)C2` [Example 55, 1-{(3S,4S)-4-Amino-1-[6-(4,7-dimethyl-1,3-dihydro-isoindol-2-yl)-pyrimidin-4-yl]-pyrrolidin-3-yl}-piperidin-2-one] belongs 101 nM.
For `N[C@H]1CN(c2ncnc(N3CCc4ccccc4C3)n2)C[C@@H]1N1CCCCC1=O` [Example 56, 1-{(3S,4S)-4-Amino-1-[4-(3,4-dihydro-1H-isoquinolin-2-yl)-[1,3,5]triazin-2-yl]-pyrrolidin-3-yl}-piperidin-2-onetrifluoroacetate], the IC50 turned out to be 85.3 nM.
As to `N[C@H]1CN(c2cc(N3CCc4ccccc4C3)ncn2)C[C@@H]1N1CCCC1=O` [Example 57, 1-((3S,4S)-4-Amino-1-(6-(3,4-dihydroisoquinolin-2(1H)-yl)pyrimidin-4-yl)pyrrolidin-3-yl)pyrrolidin-2-onehydrochloride], the IC50 was determined as 317 nM.
Same read-out and setting: under `CNS(=O)(=O)c1cccc2c1CCN(c1ncnc(N3C[C@H](N)[C@@H](N4CCCCC4=O)C3)n1)C2` [Example 58, 2-(4-((3S,4S)-3-Amino-4-(2-oxopiperidin-1-yl)pyrrolidin-1-yl)-1,3,5-triazin-2-yl)-N-methyl-1,2,3,4-tetrahydroisoquinoline-5-sulfonamidetrifluoroacetate] stands 11.6 nM.
Turning to `COc1cc2c(cc1OC)CN(c1cc(N3C[C@H](N)[C@@H](N4CCCC4=O)C3)ncn1)CC2` [Example 60, 1-((3S,4S)-4-Amino-1-(6-(3,4-dihydro-6,7-dimethoxyisoquinolin-2(1H)-yl)pyrimidin-4-yl)pyrrolidin-3-yl)pyrrolidin-2-onehydrochloride], the IC50 amounted to 1260 nM.
Turning to `N[C@H]1CN(c2cc(N3CCc4ccccc4CC3)ncn2)C[C@@H]1N1CCCC1=O` [Example 61, 1-((3S,4S)-4-Amino-1-(6-(1,2,4,5-tetrahydrobenzo[d]azepin-3-yl)pyrimidin-4-yl)pyrrolidin-3-yl)pyrrolidin-2-onehydrochloride], the IC50 was 787 nM.
The same measure, in the same setting: to `N[C@H]1CN(c2cc(N3CCc4ncsc4C3)ncn2)C[C@@H]1N1CCCC1=O` [Example 62, 1-((3S,4S)-4-Amino-1-(6-(6,7-dihydrothiazolo[5,4-c]pyridin-5(4H)-yl)pyrimidin-4-yl)pyrrolidin-3-yl)pyrrolidin-2-onedihydrochloride] belongs 640 nM; to `N[C@H]1CN(c2cc(N3CCc4cncnc4C3)ncn2)C[C@@H]1N1CCCC1=O` [Example 63, 1-((3S,4S)-4-Amino-1-(6-(5,6-dihydropyrido[3,4-d]pyrimidin-7(8H)-yl)pyrimidin-4-yl)pyrrolidin-3-yl)pyrrolidin-2-onedihydrochloride], 1990 nM; to `N[C@H]1CN(c2cc(N3CCc4nc[nH]c4C3)ncn2)C[C@@H]1N1CCCC1=O` [Example 64, 1-((3S,4S)-4-Amino-1-(6-(6,7-dihydro-3H-imidazo[4,5-c]pyridin-5(4H)-yl)pyrimidin-4-yl)pyrrolidin-3-yl)pyrrolidin-2-onedihydrochloride], 2480 nM.
`N[C@H]1CN(c2cc(N3CCc4sccc4C3)ncn2)C[C@@H]1N1CCCC1=O` [Example 65, 1-((3S,4S)-4-Amino-1-(6-(6,7-dihydrothieno[3,2-c]pyridin-5(4H)-yl)pyrimidin-4-yl)pyrrolidin-3-yl)pyrrolidin-2-onehydrochloride]: the half-maximal inhibitory concentration (IC50) is 547 nM.
Same read-out and setting: to `N[C@H]1CN(c2cc(N3CCc4[nH]ncc4C3)ncn2)C[C@@H]1N1CCCC1=O` [Example 66, 1-((3S,4S)-4-Amino-1-(6-(6,7-dihydro-1H-pyrazolo[4,3-c]pyridin-5(4H)-yl)pyrimidin-4-yl)pyrrolidin-3-yl)pyrrolidin-2-onedihydrochloride] belongs 395 nM.
